From patent US20240360114A1 (SIRONAX LTD., priority 2021, published 2024)

Tested on: HT-1080 cells
Assay: HT-1080 cell viability assay (ferroptosis induced by RSL3, Cell Titer-Glo)
Assay type: cell-based
Conditions: Homo sapiens, HT-1080, 20 h, ferroptosis inducer RSL3, 20 hours, ferroptosis inhibitory activity, Table 2
In short: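 Cells seeded overnight, then co-treated with RSL3 and compound (3-fold, 10-point dilution, top 1.1 μM) for 20 hours. Viability by CellTiter-Glo luminescence, normalized to untreated controls; EC50 from sigmoidal non-linear regression.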

Row | SMILES | EC50 [nM]
1 | Cc1nc(N2CCC(C(F)(F)F)CC2)ccc1NC1CC2(CC(N)C2)C1 (stereo not shown) [Compound 376, N2-(2-methyl-6-(4-(trifluoromethyl)piperidin-1-yl)pyridin-3-yl) spiro[3.3]heptane-2,6-diamine] | 0.1 to 100
2 | Cc1nc(N2CCC(C(F)(F)F)CC2)ccc1NC1CCC(CNC(=O)C2CNC(=O)C2)CC1 (stereo not shown) [Compound 377, N-((4-((2-methyl-6-(4-(trifluoromethyl)piperidin-1-yl)pyridin-3-yl)amino)cyclohexyl)methyl)-5-oxopyrrolidine-3-carboxamide] | 0.1 to 100
3 | Cc1nc(N2CCC(C(F)(F)F)CC2)ccc1NC[C@H]1CC[C@H](NC(=O)C2CNC(=O)C2)CC1 (stereo partly shown) [Compound 378, N-((1r,4r)-4-(((2-methyl-6-(4-(trifluoromethyl)piperidin-1-yl)pyridin-3-yl)amino)methyl)cyclohexyl)-5-oxopyrrolidine-3-carboxamide] | 0.1 to 100
4 | Cc1cc(N2CCCCC2)ccc1NC[C@H]1CC[C@H](N)CC1 [Compound 379, N-(((1r,4r)-4-aminocyclohexyl)methyl)-2-methyl-4-(piperidin-1-yl)aniline] | 0.1 to 100
5 | Cc1cc(N2CCCCC2)ccc1NC1CC2(CC(N)C2)C1 (stereo not shown) [Compound 380, N2-(2-methyl-4-(piperidin-1-yl)phenyl)spiro[3.3]heptane-2,6-diamine] | 0.1 to 100
6 | Cc1cc(N2CCC(C)(C)CC2)ccc1NC1CCC(N)CC1 (stereo not shown) [Compound 381, N1-(4-(4,4-dimethylpiperidin-1-yl)-2-methylphenyl)cyclohexane-1,4-diamine] | 0.1 to 100
7 | Cc1cc(N2CCC(C)(C)CC2)ccc1NC[C@H]1CC[C@H](N)CC1 [Compound 382, N-(((1r,4r)-4-aminocyclohexyl)methyl)-4-(4,4-dimethylpiperidin-1-yl)-2-methylaniline] | 0.1 to 100
8 | Cc1cc(N2CCC(C(F)(F)F)CC2)ccc1NCC[C@H]1CC[C@H](N)CC1 [Compound 383, N-(2-((1r,4r)-4-aminocyclohexyl)ethyl)-2-methyl-4-(4-(trifluoromethyl)piperidin-1-yl)aniline] | 0.1 to 100
9 | NC1CCC(Nc2cccc(N3CCC(C(F)(F)F)CC3)c2)CC1 (stereo not shown) [Compound 384, N1-(3-(4-(trifluoromethyl)piperidin-1-yl)phenyl)cyclohexane-1,4-diamine] | 100 to 1000
10 | CCN(CCCOC)c1ccc(NC[C@H]2CC[C@H](N)CC2)cc1 [Compound 385, N1-(((1r,4r)-4-aminocyclohexyl)methyl)-N4-ethyl-N4-(3-methoxypropyl) benzene-1,4-diamine] | 100 to 1000
11 | CCCCCN(CC)c1ccc(NC[C@H]2CC[C@H](N)CC2)cc1 [Compound 386, N1-(((1r,4r)-4-aminocyclohexyl)methyl)-N4-ethyl-N4-pentylbenzene-1,4-diamine] | 0.1 to 100
12 | Cc1cc(N2CC(C)OC(C)C2)ccc1NC[C@H]1CC[C@H](N)CC1 (stereo partly shown) [Compound 387, N-(((1r,4r)-4-aminocyclohexyl)methyl)-4-(2,6-dimethylmorpholino)-2-methylaniline] | 0.1 to 100
13 | CC(C)C1CCN(c2ncc(NC3C4CC5CC3CC(C(N)=O)(C5)C4)cn2)CC1 (stereo not shown) [Compound 388, 4-((2-(4-isopropylpiperidin-1-yl)pyrimidin-5-yl)amino)adamantane-1-carboxamide] | 0.1 to 100
14 | CCC1CCN(c2ccc(NC[C@H]3CC[C@H](N)CC3)c(C)c2)CC1 [Compound 389, N-(((1r,4r)-4-aminocyclohexyl)methyl)-4-(4-ethylpiperidin-1-yl)-2-methylaniline] | 0.1 to 100
15 | CCC1CCN(c2ccc(NC3CCC(N)CC3)c(C)c2)CC1 (stereo not shown) [Compound 390, N1-(4-(4-ethylpiperidin-1-yl)-2-methylphenyl)cyclohexane-1,4-diamine] | 0.1 to 100
16 | Cc1cc(N2CCC(C(F)(F)F)CC2)cc(C)c1NCC[C@H]1CC[C@H](N)CC1 [Compound 391, N-(2-((1r,4r)-4-aminocyclohexyl)ethyl)-2,6-dimethyl-4-(4-(trifluoromethyl)piperidin-1-yl) aniline] | 0.1 to 100
